Assay results: ChEMBL document CHEMBL2390893, “Natural product hybrid and its superacid synthesized analogues: dodoneine and its derivatives show selective inhibition of carbonic anhydrase isoforms I, III, XIII and XIV” (Bioorg Med Chem, 2013)
The source made the active and inactive calls. The rule behind the calls is not given here.

Assays:
Carbonic anhydrase 3 [1] = molecular target: T1, Carbonic anhydrase 3 (Homo sapiens, UniProt P07451); test: Inhibition of human carbonic anhydrase 3 preincubated for 15 mins by stopped flow CO2 hydrase assay
T1 sequence (P07451 whole entry): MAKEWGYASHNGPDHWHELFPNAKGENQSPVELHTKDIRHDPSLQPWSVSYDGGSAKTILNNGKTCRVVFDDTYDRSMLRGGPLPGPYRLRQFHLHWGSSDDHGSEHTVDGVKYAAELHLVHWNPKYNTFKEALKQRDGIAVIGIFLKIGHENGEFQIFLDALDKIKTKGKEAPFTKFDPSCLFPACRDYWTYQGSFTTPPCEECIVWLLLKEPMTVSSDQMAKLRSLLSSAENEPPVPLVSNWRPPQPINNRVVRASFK

Carbonic anhydrase 2 [2] = molecular target: T2, Carbonic anhydrase 2 (Homo sapiens, UniProt P00918); test: Inhibition of human carbonic anhydrase 2 at >100 uM preincubated for 15 mins by stopped flow CO2 hydrase assay
Carbonic anhydrase 14 [3] = molecular target: T3, Carbonic anhydrase 14 (Homo sapiens, UniProt Q9ULX7); test: Inhibition of human carbonic anhydrase 14 preincubated for 15 mins by stopped flow CO2 hydrase assay
T3 sequence (Q9ULX7 whole entry): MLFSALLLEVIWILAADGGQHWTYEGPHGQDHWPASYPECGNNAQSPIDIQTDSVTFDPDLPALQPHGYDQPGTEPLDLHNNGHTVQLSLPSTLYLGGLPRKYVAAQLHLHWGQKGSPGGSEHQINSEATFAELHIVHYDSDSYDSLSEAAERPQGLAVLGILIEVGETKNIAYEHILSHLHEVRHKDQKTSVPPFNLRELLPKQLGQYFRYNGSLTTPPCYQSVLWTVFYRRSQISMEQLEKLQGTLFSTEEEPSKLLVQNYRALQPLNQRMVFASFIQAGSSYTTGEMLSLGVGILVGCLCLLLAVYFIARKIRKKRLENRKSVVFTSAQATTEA

Carbonic anhydrase 1 [4] = molecular target: T4, Carbonic anhydrase 1 (Homo sapiens, UniProt P00915); test: Inhibition of human carbonic anhydrase 1 preincubated for 15 mins by stopped flow CO2 hydrase assay
Target sequence in this assay (P00915 whole entry): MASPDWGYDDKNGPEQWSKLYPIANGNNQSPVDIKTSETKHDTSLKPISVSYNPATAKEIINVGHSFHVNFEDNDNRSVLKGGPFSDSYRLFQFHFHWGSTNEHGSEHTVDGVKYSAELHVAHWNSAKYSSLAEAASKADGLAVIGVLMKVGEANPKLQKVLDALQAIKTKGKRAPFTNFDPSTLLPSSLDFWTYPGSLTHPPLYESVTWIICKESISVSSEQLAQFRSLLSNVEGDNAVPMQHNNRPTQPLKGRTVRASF

Carbonic anhydrase 12 [5] = molecular target: T5, Carbonic anhydrase 12 (Homo sapiens, UniProt O43570); test: Inhibition of human carbonic anhydrase 12 at >100 uM preincubated for 15 mins by stopped flow CO2 hydrase assay
T5 sequence (O43570 whole entry): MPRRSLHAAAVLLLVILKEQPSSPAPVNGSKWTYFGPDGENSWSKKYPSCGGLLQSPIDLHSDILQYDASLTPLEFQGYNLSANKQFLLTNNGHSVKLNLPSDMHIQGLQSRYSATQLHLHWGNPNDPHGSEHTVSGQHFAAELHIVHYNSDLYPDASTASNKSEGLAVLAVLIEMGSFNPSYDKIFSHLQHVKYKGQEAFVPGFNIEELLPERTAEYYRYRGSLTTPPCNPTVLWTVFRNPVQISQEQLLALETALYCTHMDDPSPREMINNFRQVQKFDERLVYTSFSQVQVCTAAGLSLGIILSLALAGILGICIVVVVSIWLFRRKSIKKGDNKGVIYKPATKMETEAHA

[6] = molecular target: Carbonic anhydrase 6 (Homo sapiens) (UniProt P23280); test: Inhibition of human carbonic anhydrase 6 at >100 uM preincubated for 15 mins by stopped flow CO2 hydrase assay
Sequence of Carbonic anhydrase 6 (Homo sapiens) (P23280 whole entry): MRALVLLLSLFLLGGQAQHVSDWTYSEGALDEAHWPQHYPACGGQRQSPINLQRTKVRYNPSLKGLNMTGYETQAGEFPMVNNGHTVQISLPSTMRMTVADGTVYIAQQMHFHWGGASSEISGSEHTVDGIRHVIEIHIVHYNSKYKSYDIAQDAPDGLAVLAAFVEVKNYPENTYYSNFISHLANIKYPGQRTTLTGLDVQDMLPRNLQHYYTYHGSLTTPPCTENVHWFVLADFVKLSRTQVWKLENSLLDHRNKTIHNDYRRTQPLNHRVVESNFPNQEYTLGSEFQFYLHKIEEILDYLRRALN

Carbonic anhydrase 9 [7] = molecular target: T6, Carbonic anhydrase 9 (Homo sapiens, UniProt Q16790); test: Inhibition of human carbonic anhydrase 9 at >100 uM preincubated for 15 mins by stopped flow CO2 hydrase assay
Carbonic anhydrase 4 [8] = molecular target: T7, Carbonic anhydrase 4 (Homo sapiens, UniProt P22748); test: Inhibition of human carbonic anhydrase 4 preincubated for 15 mins by stopped flow CO2 hydrase assay
T7 sequence (P22748 whole entry): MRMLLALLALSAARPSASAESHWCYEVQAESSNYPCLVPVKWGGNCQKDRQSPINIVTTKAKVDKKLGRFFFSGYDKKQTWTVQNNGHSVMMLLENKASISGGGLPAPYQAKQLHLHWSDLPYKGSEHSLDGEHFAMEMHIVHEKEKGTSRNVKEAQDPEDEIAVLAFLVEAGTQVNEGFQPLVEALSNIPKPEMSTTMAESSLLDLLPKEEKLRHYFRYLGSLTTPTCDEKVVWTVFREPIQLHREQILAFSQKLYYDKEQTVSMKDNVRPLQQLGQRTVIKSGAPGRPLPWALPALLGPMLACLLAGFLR

Carbonic anhydrase 7 [9] = molecular target: T8, Carbonic anhydrase 7 (Homo sapiens, UniProt P43166); test: Inhibition of human carbonic anhydrase 7 at >100 uM preincubated for 15 mins by stopped flow CO2 hydrase assay
T8 sequence (P43166 whole entry): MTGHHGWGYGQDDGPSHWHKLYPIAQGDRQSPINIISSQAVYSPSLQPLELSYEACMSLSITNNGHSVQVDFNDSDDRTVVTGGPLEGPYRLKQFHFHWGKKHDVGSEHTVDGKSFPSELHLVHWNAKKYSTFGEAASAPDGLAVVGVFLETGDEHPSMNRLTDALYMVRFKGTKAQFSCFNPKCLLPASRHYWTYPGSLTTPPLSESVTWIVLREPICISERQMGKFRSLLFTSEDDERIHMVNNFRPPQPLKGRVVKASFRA

[10] = molecular target: T9, Carbonic anhydrase 5B, mitochondrial (Homo sapiens, UniProt Q9Y2D0); test: Inhibition of human carbonic anhydrase 5b at >100 uM preincubated for 15 mins by stopped flow CO2 hydrase assay
T9 sequence (Q9Y2D0 whole entry): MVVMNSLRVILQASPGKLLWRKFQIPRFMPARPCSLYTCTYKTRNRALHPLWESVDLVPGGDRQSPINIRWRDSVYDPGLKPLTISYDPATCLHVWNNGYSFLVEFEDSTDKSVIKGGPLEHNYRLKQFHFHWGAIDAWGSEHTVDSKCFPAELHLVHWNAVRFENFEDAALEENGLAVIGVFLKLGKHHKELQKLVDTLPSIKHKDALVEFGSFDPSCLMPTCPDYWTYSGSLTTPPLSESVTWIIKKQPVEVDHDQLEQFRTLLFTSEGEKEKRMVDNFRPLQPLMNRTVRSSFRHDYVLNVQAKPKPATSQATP

Carbonic anhydrase 13 = Carbonic anhydrase 13 (Mus musculus, UniProt Q9D6N1); test: Inhibition of mouse carbonic anhydrase 13 preincubated for 15 mins by stopped flow CO2 hydrase assay
Sequence of Carbonic anhydrase 13 (Q9D6N1 whole entry): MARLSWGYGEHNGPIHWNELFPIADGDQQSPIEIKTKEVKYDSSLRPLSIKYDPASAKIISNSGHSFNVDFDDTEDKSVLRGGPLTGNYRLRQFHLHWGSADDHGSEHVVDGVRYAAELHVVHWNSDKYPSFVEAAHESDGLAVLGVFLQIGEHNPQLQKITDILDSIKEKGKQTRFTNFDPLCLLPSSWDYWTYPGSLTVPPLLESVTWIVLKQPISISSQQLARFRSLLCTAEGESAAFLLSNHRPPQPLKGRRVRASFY

[11] = molecular target: T10, Carbonic anhydrase 5A, mitochondrial (Homo sapiens, UniProt P35218); test: Inhibition of human carbonic anhydrase 5a at >100 uM preincubated for 15 mins by stopped flow CO2 hydrase assay
T10 sequence (P35218 whole entry): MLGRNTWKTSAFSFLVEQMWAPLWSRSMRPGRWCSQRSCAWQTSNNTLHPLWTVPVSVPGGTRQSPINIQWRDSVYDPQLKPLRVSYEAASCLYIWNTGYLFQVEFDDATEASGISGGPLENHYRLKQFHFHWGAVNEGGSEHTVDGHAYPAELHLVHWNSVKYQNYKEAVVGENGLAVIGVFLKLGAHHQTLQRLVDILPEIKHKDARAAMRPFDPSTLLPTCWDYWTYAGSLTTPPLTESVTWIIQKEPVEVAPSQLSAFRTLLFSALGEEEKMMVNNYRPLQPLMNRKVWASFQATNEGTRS

Carbonic anhydrase 3 [12] = molecular target: T1, Carbonic anhydrase 3; test: Inhibition of human carbonic anhydrase 3 at >100 uM preincubated for 15 mins by stopped flow CO2 hydrase assay
Carbonic anhydrase 12 [13] = molecular target: T5, Carbonic anhydrase 12; test: Inhibition of human carbonic anhydrase 12 preincubated for 15 mins by stopped flow CO2 hydrase assay
[14] = molecular target: T10, Carbonic anhydrase 5A, mitochondrial; test: Inhibition of human carbonic anhydrase 5a preincubated for 15 mins by stopped flow CO2 hydrase assay
[15] = molecular target: T9, Carbonic anhydrase 5B, mitochondrial; test: Inhibition of human carbonic anhydrase 5b preincubated for 15 mins by stopped flow CO2 hydrase assay
Carbonic anhydrase 9 [16] = molecular target: T6, Carbonic anhydrase 9; test: Inhibition of human carbonic anhydrase 9 preincubated for 15 mins by stopped flow CO2 hydrase assay
Carbonic anhydrase 4 [17] = molecular target: T7, Carbonic anhydrase 4; test: Inhibition of human carbonic anhydrase 4 at >100 uM preincubated for 15 mins by stopped flow CO2 hydrase assay
Carbonic anhydrase 1 [18] = molecular target: T4, Carbonic anhydrase 1; test: Inhibition of human carbonic anhydrase 1 at >100 uM preincubated for 15 mins by stopped flow CO2 hydrase assay
Target sequence in this assay (P00915 2-261 limits assumed): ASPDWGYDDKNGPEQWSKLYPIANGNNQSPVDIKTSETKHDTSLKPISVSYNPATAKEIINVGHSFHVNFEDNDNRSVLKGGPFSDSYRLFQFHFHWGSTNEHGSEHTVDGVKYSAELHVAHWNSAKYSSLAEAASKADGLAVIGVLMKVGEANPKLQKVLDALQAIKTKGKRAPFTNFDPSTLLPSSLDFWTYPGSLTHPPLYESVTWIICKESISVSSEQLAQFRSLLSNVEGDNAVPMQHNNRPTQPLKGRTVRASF

Carbonic anhydrase 14 [19] = molecular target: T3, Carbonic anhydrase 14; test: Inhibition of human carbonic anhydrase 14 at >100 uM preincubated for 15 mins by stopped flow CO2 hydrase assay
Carbonic anhydrase 2 [20] = molecular target: T2, Carbonic anhydrase 2; test: Inhibition of human carbonic anhydrase 2 preincubated for 15 mins by stopped flow CO2 hydrase assay
Carbonic anhydrase 7 [21] = molecular target: T8, Carbonic anhydrase 7; test: Inhibition of human carbonic anhydrase 7 preincubated for 15 mins by stopped flow CO2 hydrase assay

SMILES | Ki (Carbonic anhydrase 3 [1]) [µM] | inhibition (Carbonic anhydrase 2 [2]) | Ki (Carbonic anhydrase 14 [3]) [µM] | Ki (Carbonic anhydrase 1 [4]) [µM] | inhibition (Carbonic anhydrase 12 [5]) | inhibition [6] | inhibition (Carbonic anhydrase 9 [7]) | Ki (Carbonic anhydrase 4 [8]) [µM] | inhibition (Carbonic anhydrase 7 [9]) | inhibition [10] | Ki (Carbonic anhydrase 13) [µM] | inhibition [11] | inhibition (Carbonic anhydrase 3 [12]) | Ki (Carbonic anhydrase 12 [13]) [µM] | Ki [14] [µM] | Ki [15] [µM] | Ki (Carbonic anhydrase 9 [16]) [µM] | inhibition (Carbonic anhydrase 4 [17]) | inhibition (Carbonic anhydrase 1 [18]) | inhibition (Carbonic anhydrase 14 [19]) | further results
O=C1C[C@H]2C[C@H](C[C@H](CCc3ccc(O)cc3)O2)O1 | 10.8 | inactive | – | – | inactive | inactive | inactive | – | inactive | inactive | 0.91 | inactive | – | – | – | – | – | inactive | inactive | inactive | –
O=C1C=CC[C@H](C[C@@H](O)CCc2cc(Br)c(O)cc2Br)O1 | – | – | 12.5 | 0.76 | – | inactive | – | 13.7 | inactive | – | 7.89 | – | inactive | 10.8 | 8.55 | 6.32 | 15.7 | – | – | – | Ki (Carbonic anhydrase 2 [20]): 21.8 µM
O=C1C=CC[C@H](C[C@H](F)CCc2ccc(O)cc2)O1 | – | – | 2.44 | 0.13 | – | inactive | – | 5.36 | – | – | 0.96 | – | inactive | 1.48 | 7.13 | 1.36 | 3.57 | – | – | – | Ki (Carbonic anhydrase 2 [20]): 36.9 µM; Ki (Carbonic anhydrase 7 [21]): 24.9 µM

Second part, led by results:

Ki (Carbonic anhydrase 3 [1]) [µM] | inhibition (Carbonic anhydrase 2 [2]) | Ki (Carbonic anhydrase 14 [3]) [µM] | Ki (Carbonic anhydrase 1 [4]) [µM] | inhibition (Carbonic anhydrase 12 [5]) | inhibition [6] | inhibition (Carbonic anhydrase 9 [7]) | Ki (Carbonic anhydrase 4 [8]) [µM] | inhibition (Carbonic anhydrase 7 [9]) | inhibition [10] | Ki (Carbonic anhydrase 13) [µM] | inhibition [11] | inhibition (Carbonic anhydrase 3 [12]) | Ki (Carbonic anhydrase 12 [13]) [µM] | Ki [14] [µM] | Ki [15] [µM] | Ki (Carbonic anhydrase 9 [16]) [µM] | inhibition (Carbonic anhydrase 4 [17]) | inhibition (Carbonic anhydrase 1 [18]) | inhibition (Carbonic anhydrase 14 [19]) | SMILES | further results
10.3 | inactive | 9.34 | 5.48 | inactive | inactive | inactive | 9.61 | inactive | inactive | 9.27 | inactive | – | – | – | – | – | – | – | – | O=C1C=CC[C@H](C[C@@H](O)CCc2ccc(O)cc2)O1 | –
– | inactive | 7.24 | 0.38 | – | inactive | – | 4.12 | inactive | – | 8.13 | – | inactive | 24.5 | 21.6 | 13.7 | 32.6 | – | – | – | O=C1C=CC[C@H](C[C@@H](O)CCc2ccc(O)cc2O)O1 | –
5.13 | inactive | – | – | inactive | inactive | inactive | – | inactive | inactive | 0.34 | inactive | – | – | – | – | – | inactive | inactive | inactive | O=C1C[C@H]2C[C@H](C[C@H](CCc3ccc(O)cc3O)O2)O1 | –
